The nature of assay [1]: Energy expenditure of old mice (Oxylet calorimetry). The class given is in vivo, mouse. As to conditions: farnesol diet 4 months. Here is the method:
22-month-old female mice (weighing 30 g) are fed with a control diet and a farnesol diet for 4 months. That is, 22-month-old mice are fed for 4 months, and then 26-month-old mice are analyzed. […] The same mouse is used as a control group, except that it is fed with a diet containing no farnesol. Muscle strength, energy expenditure, glucose tolerance, and fat accumulation of each mouse are evaluated. […] To measure energy expenditures of old mice administered with farnesol, mice are bred in a measurement apparatus, Oxylet system (calorimetry apparatus, Panlab Harvard apparatus) for 2 days. A METABOLISM software connected with metabolic measurement modules is used for analysis of energy expenditure.

Assay [2] relates to Myh2a-positive muscle fibers. As to the kind of experiment: Myh2a immunostaining of hind limb muscles, high fat diet (PGC-1α-inhibited) model. It is filed as in vivo, mouse. The settings on record: high fat diet with 0.5% compound, 3 months. The text has this:
(§1) To prepare the PGC-1α-inhibited model, 3-month-old mouse (female, body weight of 20 g) is fed with high fat diet, in which fat is increased to 60%, compared to a negative control group, for 5 days (short-term effect) or 3 months (long-term effect). The negative control group is fed with a general diet. Farnesol is mixed in the high fat diet at a content of 0.5% (weight of farnesol/weight of diet). A positive control group is fed with high fat diet containing a type II diabetes drug, metformin at a content of 0.5% (weight of metformin/weight of diet). Mice are fed with the general diet, the high fat diet, and the high fat diet containing farnesol or metformin for 3 months, and then hind limbs are removed to analyze muscle differentiation and mitochondrial enzyme activity.
In FIG. 6C, SD represents a standard diet as a negative control group, HFD represents a high fat diet, and HFD+Farnesol or HFD-metformin represents farnesol or metformin-added HFD, respectively.

In assay [3] the test system is fibrosis-related genes TGF-β, Col A1, collagen A3, Timp2. As to the kind of experiment: qRT-PCR of fibrosis-related genes in injured tibialis anterior muscle. It is filed as in vivo. As to conditions: old mouse, CTX injury. As to the method: 25-month-old mice are fed with a control diet or a farnesol-containing diet for 2 weeks, and then 2 ul of 10 uM cardiotoxin (CTX) per body weight (g) is directly injected into the muscle to induce muscle injury. After 4 days, muscles are frozen and sectioned, followed by histological staining.
In addition, expressions of fibrosis-related genes, TGF-β, Col A1, collagen A3, and Timp2 in tibialis anterior muscle are analyzed by qRT-PCR as described above.
On the technique in general: Quantitative PCR measures a nucleic acid by following its amplification.

Assay [4] deals with C2C12 myoblasts. As to the kind of experiment: Immunoblot of PGC-1α and differentiation markers in farnesol-treated myoblasts. The class given is cell-based. Here is the method: DMEM (Dulbecco's Modified Eagle Medium) supplemented with 10% fetal bovine serum is used as a growth medium for culture of C2C12 myoblasts, and DMEM supplemented with 2% horse serum is used as a differentiation medium for differentiation of muscle cells. To induce differentiation of C2C12 myoblasts into muscle cells, 0.1 μM farnesol dissolved in DMSO or various concentrations of farnesol (0.1, 1, 10, 100 uM) are added, and DMSO is only added to a control group. The cells are cultured for 48 hours to induce differentiation, and then a lysis buffer (20 mM Tris-HCl, pH 8, 150 mM NaCl, 1% Triton X, Proteinase Inhibitor) is added to the harvested cells to allow lysis for 30 minutes, followed by centrifugation at 13,000 rpm for 30 minutes. The amount of protein in the cell lysis sample is quantified and an equal amount of protein is subjected to 8% SDS-PAGE. The protein is transferred onto a PVDF membrane, and then incubated in a blocking buffer containing 5% skim milk for 1 hour. HRP (horseradish peroxidase)-conjugated rabbit antibodies specific to individual proteins, diluted in 5% BSA, are reacted with the membrane at 4° C. for 12 hours, and then the membrane is washed with a wash buffer for 5 minutes three times. Thereafter, the membrane is exposed to X-ray film using an ECL reagent (Roche) to confirm protein expression levels.
(In general: In western blotting, separated proteins are transferred to a membrane and probed.)

Assay [5] concerns PARIS, PGC-1α. As to the kind of experiment: Immunoprecipitation for PGC-1α expression and PARIS-farnesylation, short-term high fat diet. The class given is in vivo, mouse. As to conditions: high fat diet with 0.5% compound, 5 days, gastrocnemius muscles.
Description: as §1
The effects of high fat diet and farnesol and metformin on PGC-1α induction by PARIS-farnesylation are evaluated. To analyze effect of short-term high fat diet, mice are fed with the above conditions for 5 days. Immunoblotting of PGC-1α and PARIS in gastrocnemius muscles of the mice is performed.
In this regard, PARIS-farnesylation is normalized to the immunoprecipitated PARIS expression level.

For assay [6], the system named is succinic dehydrogenase (SDH). As to the kind of experiment: SDH staining (mitochondrial enzyme activity) of extensor digitorum longus muscle. The class given is in vivo, mouse. Here is the method: Staining of succinic dehydrogenase (SDH) in the extensor digitorum longus muscle of a mouse administered with farnesol for 5 weeks is performed. This staining method is a method of analyzing mitochondrial activity by measuring activity of SDH which is an enzyme involved in the electron transport chain of mitochondria. Staining degree represents a content of oxidative muscle fiber. Frozen tissue sections are reacted in 0.2 M phosphate buffer (pH 7.4) containing […] sodium succinate and nitro blue tetrazolium (NBT) at 37° C. for 60 minutes, washed with distilled water, and then sealed, followed by observation. Further, farnesol is administered to mice in the same manner as in Section 4 of Example 2, except that 22-month-old mice are used instead of 5-month-old mice and administration is performed for 4 months instead of 5 weeks, and activity of a mitochondrial enzyme according to farnesol administration is analyzed in the extensor digitorum longus muscles of old mice.

Assay [7] can be described thus: Glucose tolerance test of old mice. The class given is in vivo. As to conditions: old mouse, 1 g/kg glucose i.p. after overnight fast. As to the method: 22-month-old female mice (weighing 30 g) are fed with a control diet and a farnesol diet for 4 months. That is, 22-month-old mice are fed for 4 months, and then 26-month-old mice are analyzed. […] The same mouse is used as a control group, except that it is fed with a diet containing no farnesol. Muscle strength, energy expenditure, glucose tolerance, and fat accumulation of each mouse are evaluated.

The mark [8] stands for this setting: 0.1-100 uM tested, from 0.1 to 10 uM, FIG. 1B.
The mark [9] stands for this setting: farnesol-treated myoblasts, FIG. 1A.

As to `CC(C)=CCC/C(C)=C/CC/C(C)=C/CO` [farnesol, (2E,6E)-3,7,11-trimethyldodeca-2,6,10-trien-1-ol], the energy expenditure entry in assay [1] was “significantly increased”. The “percentage of Myh2a-postive muscle fibers” value in assay [2] is “significantly increases”. In addition, the “expressions of fibrosis-related genes in injured tibialis anterior muscle” value in assay [3] is given as “significantly reduced”. Also, in assay [4] (setting [8]), the “expression of MHC according to farnesol concentration” value is recorded as “increased in myoblasts in a farnesol concentration-dependent manner”, the “expression of PGC-1α according to farnesol concentration” value is recorded as “increased in myoblasts in a farnesol concentration-dependent manner” and the “expression of myogenin according to farnesol concentration” value is reported as “increased in myoblasts in a farnesol concentration-dependent manner”. Besides, the “increase in PGC-1α gene expression compared to control group” value in assay [4] (farnesol-treated myoblasts, 48 hours, FIG. 1A) is on record as “about 2.8 times”. Moreover, in assay [4] (setting [9]), the “expression of myoblast determination protein (MyoD)” value is “increased”, the “expression of myosin heavy chain (MHC)” value is given as “increased” and the “expression of troponin T gene” value is listed as “increased”. In assay [5], the “reduction in PARIS-farnesylation by high fat diet” value is “inhibited” and the “reduction in PGC-1α expression by high fat diet” value is listed as “inhibited”. Further, in assay [6] (5-month-old mice, farnesol 5 weeks), the “percentage of the area stained dark (SDH activity) in EDL” value is listed as “remarkably increased”. Also, in assay [6] (22-month-old mice, farnesol 4 months), the “percentage of the area stained dark (SDH activity) in EDL” value was “remarkably increased”. The “blood glucose level in glucose tolerance test” value in assay [7] was “remarkably low”.

The values above are taken from patent publication US10780061B2, “Composition comprising farnesol and use thereof” (Daegu Gyongbuk Institute of Science and Technology, priority 2014, dated 2020).
